The source made the active and inactive calls.
What was measured:
Format in all cases: functional, cell-based
TC-32 = experiment: Cytotoxicity against human TC32 cells assessed as reduction in cell viability at 2 uM after 48 hrs by SRB assay
Homo sapiens [1] = species: Homo sapiens; experiment: Cytotoxicity against human SJCRH30 cells assessed as reduction in cell viability at 2 uM after 48 hrs by SRB assay
Homo sapiens [2] = species: Homo sapiens; experiment: Cytotoxicity against human D283 cells assessed as reduction in cell viability at 2 uM after 48 hrs by SRB assay
Hep293TT = experiment: Cytotoxicity against human Hep293TT cells assessed as reduction in cell viability at 2 uM after 48 hrs by SRB assay
SK-ES1 = experiment: Cytotoxicity against human SK-ES-1 cells assessed as reduction in cell viability at 2 uM after 48 hrs by SRB assay
A673 = experiment: Cytotoxicity against human A673 cells assessed as reduction in cell viability at 2 uM after 48 hrs by SRB assay

Measured: Activity

CO[C@@H](/C(C)=C/C=C/C(C)=C/c1coc(C)n1)[C@@H](C)[C@@H]1C[C@H](O)[C@H](C(C)=O)/C=C/[C@@H](C)[C@H]2C[C@H](CC(=O)O2)C[C@@H]2O[C@H]2C(=O)O1
inactive: all assays above

CO[C@@H](/C(C)=C/C=C/C(C)=C/c1coc(C)n1)[C@@H](C)[C@@H]1C[C@H](O)[C@@](C)(O)/C=C/[C@H](O)[C@@H](C)[C@H]2C[C@H](CC(=O)O2)C[C@@H]2O[C@H]2C(=O)O1
inactive: all assays above

COC(=O)C[C@H]1C[C@@H](O)[C@H](C)[C@@H](O)/C=C/[C@](C)(O)[C@@H](O)C[C@@H]([C@H](C)[C@@H](OC)/C(C)=C/C=C/C(C)=C/c2coc(C)n2)OC(=O)[C@@H]2O[C@H]2C1
inactive: all assays above

CO[C@@H](/C(C)=C/C=C/C(C)=C/c1coc(C)n1)[C@@H](C)[C@@H]1C[C@H](O)[C@@](C)(O)[C@@H](O)/C=C/[C@@H](C)[C@H]2C[C@H](CC(=O)O2)C[C@@H]2O[C@H]2C(=O)O1
inactive: all assays above

CO[C@@H](/C(C)=C/C=C/C(C)=C/c1coc(C)n1)[C@@H](C)[C@@H]1C[C@H](O)[C@@](C)(O)[C@H](O)/C=C/[C@@H](C)[C@H]2C[C@H](CC(=O)O2)C[C@@H]2O[C@H]2C(=O)O1
inactive: all assays above

From ChEMBL document CHEMBL4480448, “In Situ Ring Contraction and Transformation of the Rhizoxin Macrocycle through an Abiotic Pathway” (J Nat Prod, 2019)
